Results reported in PMC12748989 (Nature Communications, 2025).

Columns and labels:
PBMC = conditions: 12.5 µM

Row | Structure (SMILES) | Average (percentage cell inhibition), Dmastoparan MDA-MB231 12.5uM (MDA-MB-231 cells) | Average (percentage cell inhibition), Mastoparan PBMC (PBMC)
1 | CC[C@H](C)[C@H](N)C(=O)N[C@@H](CC(N)=O)C(=O)N[C@@H](CC(C)C)C(=O)N[C@@H](CCCCN)C(=O)N[C@@H](C)C(=O)N[C@@H](CC(C)C)C(=O)N[C@@H](C)C(=O)N[C@@H](C)C(=O)N[C@@H](Cc1c[nH]c2ccccc12)C(=O)N[C@@H](C)C(=O)N[C@@H](CCCCN)C(=O)N[C@@H](CCCCN)C(=O)N[C@H](C(=O)N[C@@H](CC(C)C)C(N)=O)[C@@H](C)CC [W9] | 26.5648% | 6.531%
2 | CC[C@H](C)[C@H](N)C(=O)N[C@@H](CC(N)=O)C(=O)N[C@@H](CC(C)C)C(=O)N[C@@H](CCCCN)C(=O)N[C@@H](C)C(=O)N[C@@H](CC(C)C)C(=O)N[C@@H](C)C(=O)N[C@@H](C)C(=O)N[C@@H](CC(C)C)C(=O)N[C@@H](Cc1c[nH]c2ccccc12)C(=O)N[C@@H](CCCCN)C(=O)N[C@@H](CCCCN)C(=O)N[C@H](C(=O)N[C@@H](CC(C)C)C(N)=O)[C@@H](C)CC [W10] | 49.5675% | 15.3863%
3 | CC[C@H](C)[C@H](N)C(=O)N[C@@H](CC(N)=O)C(=O)N[C@@H](CC(C)C)C(=O)N[C@@H](CCCCN)C(=O)N[C@@H](C)C(=O)N[C@@H](CC(C)C)C(=O)N[C@@H](C)C(=O)N[C@@H](C)C(=O)N[C@@H](CC(C)C)C(=O)N[C@@H](C)C(=O)N[C@@H](Cc1c[nH]c2ccccc12)C(=O)N[C@@H](CCCCN)C(=O)N[C@H](C(=O)N[C@@H](CC(C)C)C(N)=O)[C@@H](C)CC [W11] | 74.1582% | 64.4734%
4 | CC[C@H](C)[C@H](N)C(=O)N[C@@H](CC(N)=O)C(=O)N[C@@H](CC(C)C)C(=O)N[C@@H](CCCCN)C(=O)N[C@@H](C)C(=O)N[C@@H](CC(C)C)C(=O)N[C@@H](C)C(=O)N[C@@H](C)C(=O)N[C@@H](CC(C)C)C(=O)N[C@@H](C)C(=O)N[C@@H](CCCCN)C(=O)N[C@@H](Cc1c[nH]c2ccccc12)C(=O)N[C@H](C(=O)N[C@@H](CC(C)C)C(N)=O)[C@@H](C)CC [W12] | 64.637% | 73.0011%
5 | CC[C@H](C)[C@H](N)C(=O)N[C@@H](CC(N)=O)C(=O)N[C@@H](CC(C)C)C(=O)N[C@@H](CCCCN)C(=O)N[C@@H](C)C(=O)N[C@@H](CC(C)C)C(=O)N[C@@H](C)C(=O)N[C@@H](C)C(=O)N[C@@H](CC(C)C)C(=O)N[C@@H](C)C(=O)N[C@@H](CCCCN)C(=O)N[C@@H](CCCCN)C(=O)N[C@@H](Cc1c[nH]c2ccccc12)C(=O)N[C@@H](CC(C)C)C(N)=O [W13] | 70.7641% | 24.9289%
6 | CC[C@H](C)[C@H](N)C(=O)N[C@@H](CC(N)=O)C(=O)N[C@@H](CC(C)C)C(=O)N[C@@H](CCCCN)C(=O)N[C@@H](C)C(=O)N[C@@H](CC(C)C)C(=O)N[C@@H](C)C(=O)N[C@@H](C)C(=O)N[C@@H](CC(C)C)C(=O)N[C@@H](C)C(=O)N[C@@H](CCCCN)C(=O)N[C@@H](CCCCN)C(=O)N[C@H](C(=O)N[C@@H](Cc1c[nH]c2ccccc12)C(N)=O)[C@@H](C)CC [W14] | 56.1495% | 13.9862%
7 | CC[C@H](C)[C@H](NC(=O)[C@H](CCCCN)NC(=O)[C@H](CCCCN)NC(=O)[C@H](C)NC(=O)[C@H](CC(C)C)NC(=O)[C@H](C)NC(=O)[C@H](C)NC(=O)[C@H](CC(C)C)NC(=O)[C@H](C)NC(=O)[C@H](CCCCN)NC(=O)[C@H](CC(C)C)NC(=O)[C@H](CC(N)=O)NC(=O)[C@@H](N)Cc1ccc(O)cc1)C(=O)N[C@@H](CC(C)C)C(N)=O [Y1] | 48.2987% | 14.8394%
8 | CC[C@H](C)[C@H](N)C(=O)N[C@@H](Cc1ccc(O)cc1)C(=O)N[C@@H](CC(C)C)C(=O)N[C@@H](CCCCN)C(=O)N[C@@H](C)C(=O)N[C@@H](CC(C)C)C(=O)N[C@@H](C)C(=O)N[C@@H](C)C(=O)N[C@@H](CC(C)C)C(=O)N[C@@H](C)C(=O)N[C@@H](CCCCN)C(=O)N[C@@H](CCCCN)C(=O)N[C@H](C(=O)N[C@@H](CC(C)C)C(N)=O)[C@@H](C)CC [Y2] | 75.0702% | 57.84%
9 | CC[C@H](C)[C@H](N)C(=O)N[C@@H](CC(N)=O)C(=O)N[C@@H](Cc1ccc(O)cc1)C(=O)N[C@@H](CCCCN)C(=O)N[C@@H](C)C(=O)N[C@@H](CC(C)C)C(=O)N[C@@H](C)C(=O)N[C@@H](C)C(=O)N[C@@H](CC(C)C)C(=O)N[C@@H](C)C(=O)N[C@@H](CCCCN)C(=O)N[C@@H](CCCCN)C(=O)N[C@H](C(=O)N[C@@H](CC(C)C)C(N)=O)[C@@H](C)CC [Y3] | 39.9685% | 5.097%
10 | CC[C@H](C)[C@H](N)C(=O)N[C@@H](CC(N)=O)C(=O)N[C@@H](CC(C)C)C(=O)N[C@@H](Cc1ccc(O)cc1)C(=O)N[C@@H](C)C(=O)N[C@@H](CC(C)C)C(=O)N[C@@H](C)C(=O)N[C@@H](C)C(=O)N[C@@H](CC(C)C)C(=O)N[C@@H](C)C(=O)N[C@@H](CCCCN)C(=O)N[C@@H](CCCCN)C(=O)N[C@H](C(=O)N[C@@H](CC(C)C)C(N)=O)[C@@H](C)CC [Y4] | 34.4143% | 3.789%
11 | CC[C@H](C)[C@H](N)C(=O)N[C@@H](CC(N)=O)C(=O)N[C@@H](CC(C)C)C(=O)N[C@@H](CCCCN)C(=O)N[C@@H](Cc1ccc(O)cc1)C(=O)N[C@@H](CC(C)C)C(=O)N[C@@H](C)C(=O)N[C@@H](C)C(=O)N[C@@H](CC(C)C)C(=O)N[C@@H](C)C(=O)N[C@@H](CCCCN)C(=O)N[C@@H](CCCCN)C(=O)N[C@H](C(=O)N[C@@H](CC(C)C)C(N)=O)[C@@H](C)CC [Y5] | 43.7779% | 12.3024%
12 | CC[C@H](C)[C@H](N)C(=O)N[C@@H](CC(N)=O)C(=O)N[C@@H](CC(C)C)C(=O)N[C@@H](CCCCN)C(=O)N[C@@H](C)C(=O)N[C@@H](Cc1ccc(O)cc1)C(=O)N[C@@H](C)C(=O)N[C@@H](C)C(=O)N[C@@H](CC(C)C)C(=O)N[C@@H](C)C(=O)N[C@@H](CCCCN)C(=O)N[C@@H](CCCCN)C(=O)N[C@H](C(=O)N[C@@H](CC(C)C)C(N)=O)[C@@H](C)CC [Y6] | 22.8055% | -4.904%
13 | CC[C@H](C)[C@H](N)C(=O)N[C@@H](CC(N)=O)C(=O)N[C@@H](CC(C)C)C(=O)N[C@@H](CCCCN)C(=O)N[C@@H](C)C(=O)N[C@@H](CC(C)C)C(=O)N[C@@H](Cc1ccc(O)cc1)C(=O)N[C@@H](C)C(=O)N[C@@H](CC(C)C)C(=O)N[C@@H](C)C(=O)N[C@@H](CCCCN)C(=O)N[C@@H](CCCCN)C(=O)N[C@H](C(=O)N[C@@H](CC(C)C)C(N)=O)[C@@H](C)CC [Y7] | 74.0703% | 16.9599%
14 | CC[C@H](C)[C@H](N)C(=O)N[C@@H](CC(N)=O)C(=O)N[C@@H](CC(C)C)C(=O)N[C@@H](CCCCN)C(=O)N[C@@H](C)C(=O)N[C@@H](CC(C)C)C(=O)N[C@@H](C)C(=O)N[C@@H](Cc1ccc(O)cc1)C(=O)N[C@@H](CC(C)C)C(=O)N[C@@H](C)C(=O)N[C@@H](CCCCN)C(=O)N[C@@H](CCCCN)C(=O)N[C@H](C(=O)N[C@@H](CC(C)C)C(N)=O)[C@@H](C)CC [Y8] | 50.1841% | 22.0038%
15 | CC[C@H](C)[C@H](N)C(=O)N[C@@H](CC(N)=O)C(=O)N[C@@H](CC(C)C)C(=O)N[C@@H](CCCCN)C(=O)N[C@@H](C)C(=O)N[C@@H](CC(C)C)C(=O)N[C@@H](C)C(=O)N[C@@H](C)C(=O)N[C@@H](Cc1ccc(O)cc1)C(=O)N[C@@H](C)C(=O)N[C@@H](CCCCN)C(=O)N[C@@H](CCCCN)C(=O)N[C@H](C(=O)N[C@@H](CC(C)C)C(N)=O)[C@@H](C)CC [Y9] | 27.288% | 11.8226%
16 | CC[C@H](C)[C@H](N)C(=O)N[C@@H](CC(N)=O)C(=O)N[C@@H](CC(C)C)C(=O)N[C@@H](CCCCN)C(=O)N[C@@H](C)C(=O)N[C@@H](CC(C)C)C(=O)N[C@@H](C)C(=O)N[C@@H](C)C(=O)N[C@@H](CC(C)C)C(=O)N[C@@H](Cc1ccc(O)cc1)C(=O)N[C@@H](CCCCN)C(=O)N[C@@H](CCCCN)C(=O)N[C@H](C(=O)N[C@@H](CC(C)C)C(N)=O)[C@@H](C)CC [Y10] | 27.1013% | 11.2083%
17 | CC[C@H](C)[C@H](N)C(=O)N[C@@H](CC(N)=O)C(=O)N[C@@H](CC(C)C)C(=O)N[C@@H](CCCCN)C(=O)N[C@@H](C)C(=O)N[C@@H](CC(C)C)C(=O)N[C@@H](C)C(=O)N[C@@H](C)C(=O)N[C@@H](CC(C)C)C(=O)N[C@@H](C)C(=O)N[C@@H](Cc1ccc(O)cc1)C(=O)N[C@@H](CCCCN)C(=O)N[C@H](C(=O)N[C@@H](CC(C)C)C(N)=O)[C@@H](C)CC [Y11] | 42.1135% | 16.0926%
18 | CC[C@H](C)[C@H](N)C(=O)N[C@@H](CC(N)=O)C(=O)N[C@@H](CC(C)C)C(=O)N[C@@H](CCCCN)C(=O)N[C@@H](C)C(=O)N[C@@H](CC(C)C)C(=O)N[C@@H](C)C(=O)N[C@@H](C)C(=O)N[C@@H](CC(C)C)C(=O)N[C@@H](C)C(=O)N[C@@H](CCCCN)C(=O)N[C@@H](Cc1ccc(O)cc1)C(=O)N[C@H](C(=O)N[C@@H](CC(C)C)C(N)=O)[C@@H](C)CC [Y12] | 47.3973% | 22.3509%
19 | CC[C@H](C)[C@H](N)C(=O)N[C@@H](CC(N)=O)C(=O)N[C@@H](CC(C)C)C(=O)N[C@@H](CCCCN)C(=O)N[C@@H](C)C(=O)N[C@@H](CC(C)C)C(=O)N[C@@H](C)C(=O)N[C@@H](C)C(=O)N[C@@H](CC(C)C)C(=O)N[C@@H](C)C(=O)N[C@@H](CCCCN)C(=O)N[C@@H](CCCCN)C(=O)N[C@@H](Cc1ccc(O)cc1)C(=O)N[C@@H](CC(C)C)C(N)=O [Y13] | 39.3488% | 16.5864%
